Test system: S. aureus ATCC 6538
Assay: quantitative suspension assay of mono-substances
Format: cell-based, Staphylococcus aureus
Description: A stock solution was prepared by adding 0.1 ml methanol to 10.48 mg of hydroxytyrosol. After dissolving of the compound, the solution was quantitatively transferred into 4.9 ml water for injection (WFI), effective concentration of hydroxytyrosol: 2.0 mg/ml.
Using the stock solution, five (5) concentrations of hydroxytyrosol in a geometric series of 2 mg hydroxytyrosol/ml to 0.125 mg hydroxytyrosol/ml were tested in a quantitative suspension assay.
2 ml of the stock solution and the dilutions (V1 to V4), respectively, and a methanol-solution of 2% as a positive control were inoculated with 0.1 ml of a test suspension of S. aureus ATCC 6538, adjusted to about 2.0×10^5 CFU/0.1 ml, resulting in about 100,000 CFU/ml in the individual assays.
Samples (0.1 ml) were then taken at t 0, 12, 30, and 60 minutes as well as t 24 48, and 72 hours after inoculation and culturing at between 20-25° C., and were diluted with 0.9 ml of 0.9% NaCl solution. The samples were plated on blood agar plates, and incubated up to 5 days at between 30-35° C.
A stock solution was prepared at a concentration of 2 mg/ml of oleocanthal. The compound was dissolved by in ethanol (99.8%) and WFI was added.
Using the stock solution, concentrations of oleocanthal in a geometric series of 1 mg oleocanthal/ml to 0.125 mg oleocanthal/ml were tested in a quantitative suspension assay.
2 ml of the stock solution and the dilutions (V1 to V4), respectively, and a ethanol-solution of 2.85% as a positive control were inoculated with 0.055 ml of a test suspension of S. aureus ATCC 6538, adjusted to about 3.6×10^5 CFU/0.1 ml, resulting in about 99,000 CFU/ml in the individual assays.
A stock solution was prepared at a concentration of 1 mg/ml of oleacin. The compound was dissolved by in ethanol (99.8%) and WFI was added.
Using the stock solution, concentrations of oleacin at 0.25 mg oleacin/ml and 0.125 mg oleacin/ml were tested in a quantitative suspension assay.
2 ml of the stock solution and the dilutions (V1 and V2), respectively, and a ethanol-solution of 0.44% as a positive control were inoculated with 0.055 ml of a test suspension of S. aureus ATCC 6538, adjusted to about 3.5×10^5 CFU/0.1 ml, resulting in about 99,000 CFU/ml in the individual assays.
A stock solution was prepared by adding 0.1 ml chloroform to 25 mg of uvaol. After dissolving of the compound, the solution was quantitatively transferred into 12.4 ml water for injection (WFI), effective concentration of uvaol: 2.0 mg/ml.
Using the stock solution, five (5) concentrations of uvaol in a geometric series of 2 mg uvaol/ml to 0.125 mg uvaol/ml were tested in a quantitative suspension assay.
2 ml of the stock solution and the dilutions (V1 to V4), respectively, and a chloroform-solution of 0.8% as a positive control were inoculated with 0.1 ml of a test suspension of S. aureus ATCC 6538, adjusted to about 2.0×10^5 CFU/0.1 ml, resulting in about 100,000 CFU/ml in the individual assays.
A stock solution was prepared by adding 0.1 ml chloroform to 10.45 mg of erythrodiol. After dissolving of the compound, the solution was quantitatively transferred into 4.9 ml water for injection (WFI), effective concentration of erythrodiol: 2.0 mg/ml.
2 ml of the stock solution and the dilutions (V1 to V4), respectively, and a chloroform-solution of 2% as a positive control were inoculated with 0.1 ml of a test suspension of S. aureus ATCC 6538, adjusted to about 3.6×10^5 CFU/0.1 ml, resulting in about 100.000 CFU/ml in the individual assays.

C[C@H]1[C@H](C)CC[C@]2(CO)CC[C@]3(C)C(=CC[C@@H]4[C@@]5(C)CC[C@H](O)C(C)(C)[C@@H]5CC[C@]43C)[C@H]12 [uvaol]
Number of CFUs (0.125 Uva/ml, t 0 min, initial cell load 2.0 × 10^5 CFU/ml): 6.3 × 10^4 CFU/ml
Number of CFUs (0.125 Uva/ml, t 12 min, initial cell load 2.0 × 10^5 CFU/ml): 5.7 × 10^4 CFU/ml
Number of CFUs (0.125 Uva/ml, t 30 min, initial cell load 2.0 × 10^5 CFU/ml): 7.6 × 10^4 CFU/ml
Number of CFUs (0.125 Uva/ml, t 60 min, initial cell load 2.0 × 10^5 CFU/ml): 6.6 × 10^4 CFU/ml
Number of CFUs (0.125 Uva/ml, t 24 h, initial cell load 2.0 × 10^5 CFU/ml): 4.7 × 10^3 CFU/ml
Number of CFUs (0.125 Uva/ml, t 48 h, initial cell load 2.0 × 10^5 CFU/ml): 4.2 × 10^3 CFU/ml
Number of CFUs (0.125 Uva/ml, t 72 h, initial cell load 2.0 × 10^5 CFU/ml): 8.2 × 10^2 CFU/ml
Number of CFUs (0.25 Uva/ml, t 0 min, initial cell load 2.0 × 10^5 CFU/ml): 5.3 × 10^4 CFU/ml
Number of CFUs (0.25 Uva/ml, t 12 min, initial cell load 2.0 × 10^5 CFU/ml): 8.1 × 10^4 CFU/ml
Number of CFUs (0.25 Uva/ml, t 30 min, initial cell load 2.0 × 10^5 CFU/ml): 5.3 × 10^4 CFU/ml
Number of CFUs (0.25 Uva/ml, t 60 min, initial cell load 2.0 × 10^5 CFU/ml): 5.7 × 10^4 CFU/ml
Number of CFUs (0.25 Uva/ml, t 24 h, initial cell load 2.0 × 10^5 CFU/ml): <100 CFU/ml
Number of CFUs (0.25 Uva/ml, t 48 h, initial cell load 2.0 × 10^5 CFU/ml): <100 CFU/ml
Number of CFUs (0.25 Uva/ml, t 72 h, initial cell load 2.0 × 10^5 CFU/ml): <100 CFU/ml
Number of CFUs (0.5 Uva/ml, t 0 min, initial cell load 2.0 × 10^5 CFU/ml): 7.0 × 10^4 CFU/ml
Number of CFUs (0.5 Uva/ml, t 12 min, initial cell load 2.0 × 10^5 CFU/ml): 7.8 × 10^4 CFU/ml
Number of CFUs (0.5 Uva/ml, t 30 min, initial cell load 2.0 × 10^5 CFU/ml): 7.6 × 10^4 CFU/ml
Number of CFUs (0.5 Uva/ml, t 60 min, initial cell load 2.0 × 10^5 CFU/ml): 5.7 × 10^4 CFU/ml
Number of CFUs (0.5 Uva/ml, t 24 h, initial cell load 2.0 × 10^5 CFU/ml): <100 CFU/ml
Number of CFUs (0.5 Uva/ml, t 48 h, initial cell load 2.0 × 10^5 CFU/ml): <100 CFU/ml
Number of CFUs (0.5 Uva/ml, t 72 h, initial cell load 2.0 × 10^5 CFU/ml): <100 CFU/ml
Number of CFUs (1.0 Uva/ml, t 0 min, initial cell load 2.0 × 10^5 CFU/ml): 7.8 × 10^4 CFU/ml
Number of CFUs (1.0 Uva/ml, t 12 min, initial cell load 2.0 × 10^5 CFU/ml): 7.8 × 10^4 CFU/ml
Number of CFUs (1.0 Uva/ml, t 30 min, initial cell load 2.0 × 10^5 CFU/ml): 7.4 × 10^4 CFU/ml
Number of CFUs (1.0 Uva/ml, t 60 min, initial cell load 2.0 × 10^5 CFU/ml): 5.9 × 10^4 CFU/ml
Number of CFUs (1.0 Uva/ml, t 24 h, initial cell load 2.0 × 10^5 CFU/ml): <100 CFU/ml
Number of CFUs (1.0 Uva/ml, t 48 h, initial cell load 2.0 × 10^5 CFU/ml): <100 CFU/ml
Number of CFUs (1.0 Uva/ml, t 72 h, initial cell load 2.0 × 10^5 CFU/ml): <100 CFU/ml
Number of CFUs (2.0 Uva/ml, t 0 min, initial cell load 2.0 × 10^5 CFU/ml): 7.2 × 10^4 CFU/ml
Number of CFUs (2.0 Uva/ml, t 12 min, initial cell load 2.0 × 10^5 CFU/ml): 5.9 × 10^4 CFU/ml
Number of CFUs (2.0 Uva/ml, t 30 min, initial cell load 2.0 × 10^5 CFU/ml): 7.0 × 10^4 CFU/ml
Number of CFUs (2.0 Uva/ml, t 60 min, initial cell load 2.0 × 10^5 CFU/ml): 7.0 × 10^4 CFU/ml
Number of CFUs (2.0 Uva/ml, t 24 h, initial cell load 2.0 × 10^5 CFU/ml): <100 CFU/ml
Number of CFUs (2.0 Uva/ml, t 48 h, initial cell load 2.0 × 10^5 CFU/ml): <100 CFU/ml
Number of CFUs (2.0 Uva/ml, t 72 h, initial cell load 2.0 × 10^5 CFU/ml): <100 CFU/ml

OCCc1ccc(O)c(O)c1 [Hydroxytyrosol]
Number of CFUs (0.125 Hyd/ml, t 0 min, initial cell load 1.7 × 10^5 CFU/ml): 7.0 × 10^4 CFU/ml
Number of CFUs (0.125 Hyd/ml, t 12 min, initial cell load 1.7 × 10^5 CFU/ml): 7.4 × 10^4 CFU/ml
Number of CFUs (0.125 Hyd/ml, t 30 min, initial cell load 1.7 × 10^5 CFU/ml): 7.0 × 10^4 CFU/ml
Number of CFUs (0.125 Hyd/ml, t 60 min, initial cell load 1.7 × 10^5 CFU/ml): 6.8 × 10^4 CFU/ml
Number of CFUs (0.125 Hyd/ml, t 24 h, initial cell load 1.7 × 10^5 CFU/ml): 2.8 × 10^3 CFU/ml
Number of CFUs (0.125 Hyd/ml, t 48 h, initial cell load 1.7 × 10^5 CFU/ml): <100 CFU/ml
Number of CFUs (0.125 Hyd/ml, t 72 h, initial cell load 1.7 × 10^5 CFU/ml): 7.1 × 10^2 CFU/ml
Number of CFUs (0.25 Hyd/ml, t 0 min, initial cell load 1.7 × 10^5 CFU/ml): 5.7 × 10^4 CFU/ml
Number of CFUs (0.25 Hyd/ml, t 12 min, initial cell load 1.7 × 10^5 CFU/ml): 5.1 × 10^4 CFU/ml
Number of CFUs (0.25 Hyd/ml, t 30 min, initial cell load 1.7 × 10^5 CFU/ml): 5.9 × 10^4 CFU/ml
Number of CFUs (0.25 Hyd/ml, t 60 min, initial cell load 1.7 × 10^5 CFU/ml): 7.4 × 10^4 CFU/ml
Number of CFUs (0.25 Hyd/ml, t 24 h, initial cell load 1.7 × 10^5 CFU/ml): 1.4 × 10^3 CFU/ml
Number of CFUs (0.25 Hyd/ml, t 48 h, initial cell load 1.7 × 10^5 CFU/ml): <100 CFU/ml
Number of CFUs (0.25 Hyd/ml, t 72 h, initial cell load 1.7 × 10^5 CFU/ml): <100 CFU/ml
Number of CFUs (0.5 Hyd/ml, t 0 min, initial cell load 1.7 × 10^5 CFU/ml): 7.0 × 10^4 CFU/ml
Number of CFUs (0.5 Hyd/ml, t 12 min, initial cell load 1.7 × 10^5 CFU/ml): 6.6 × 10^4 CFU/ml
Number of CFUs (0.5 Hyd/ml, t 30 min, initial cell load 1.7 × 10^5 CFU/ml): 6.4 × 10^4 CFU/ml
Number of CFUs (0.5 Hyd/ml, t 60 min, initial cell load 1.7 × 10^5 CFU/ml): 6.1 × 10^4 CFU/ml
Number of CFUs (0.5 Hyd/ml, t 24 h, initial cell load 1.7 × 10^5 CFU/ml): 2.0 × 10^2 CFU/ml
Number of CFUs (0.5 Hyd/ml, t 48 h, initial cell load 1.7 × 10^5 CFU/ml): <100 CFU/ml
Number of CFUs (0.5 Hyd/ml, t 72 h, initial cell load 1.7 × 10^5 CFU/ml): <100 CFU/ml
Number of CFUs (1.0 Hyd/ml, t 0 min, initial cell load 1.7 × 10^5 CFU/ml): 6.8 × 10^4 CFU/ml
Number of CFUs (1.0 Hyd/ml, t 12 min, initial cell load 1.7 × 10^5 CFU/ml): 7.8 × 10^4 CFU/ml
Number of CFUs (1.0 Hyd/ml, t 30 min, initial cell load 1.7 × 10^5 CFU/ml): 7.4 × 10^4 CFU/ml
Number of CFUs (1.0 Hyd/ml, t 60 min, initial cell load 1.7 × 10^5 CFU/ml): 7.2 × 10^4 CFU/ml
Number of CFUs (1.0 Hyd/ml, t 24 h, initial cell load 1.7 × 10^5 CFU/ml): <100 CFU/ml
Number of CFUs (1.0 Hyd/ml, t 48 h, initial cell load 1.7 × 10^5 CFU/ml): <100 CFU/ml
Number of CFUs (1.0 Hyd/ml, t 72 h, initial cell load 1.7 × 10^5 CFU/ml): <100 CFU/ml
Number of CFUs (2.0 Hyd/ml, t 0 min, initial cell load 1.7 × 10^5 CFU/ml): 7.0 × 10^4 CFU/ml
Number of CFUs (2.0 Hyd/ml, t 12 min, initial cell load 1.7 × 10^5 CFU/ml): 8.9 × 10^4 CFU/ml
Number of CFUs (2.0 Hyd/ml, t 30 min, initial cell load 1.7 × 10^5 CFU/ml): 5.9 × 10^4 CFU/ml
Number of CFUs (2.0 Hyd/ml, t 60 min, initial cell load 1.7 × 10^5 CFU/ml): 5.9 × 10^4 CFU/ml
Number of CFUs (2.0 Hyd/ml, t 24 h, initial cell load 1.7 × 10^5 CFU/ml): <100 CFU/ml
Number of CFUs (2.0 Hyd/ml, t 48 h, initial cell load 1.7 × 10^5 CFU/ml): <100 CFU/ml
Number of CFUs (2.0 Hyd/ml, t 72 h, initial cell load 1.7 × 10^5 CFU/ml): <100 CFU/ml
